According to patent US20130267494A1, “1,4-OXAZEPANE DERIVATIVES” (priority 2010, published 2013):
Counter-ions that a name gives are not always drawn. Like-named read-outs stand apart in the source and are kept apart here.

How the values were obtained:
Format in all cases: cell-based
[1] = target: T1, human serotonin transporter (Homo sapiens, UniProt P31645); test: Inhibitory action on human serotonin transporter ([3H]-5-hydroxytryptamine uptake in CHO cells); conditions: compound 1 μM, relative to inhibitory activity of 10 μM Paroxetine as 100%; for inhibition at 1 µM: CHO, read-out: inhibitory rate (%)
T1 construct: expressed in transfected cells
T1 sequence (P31645 whole entry): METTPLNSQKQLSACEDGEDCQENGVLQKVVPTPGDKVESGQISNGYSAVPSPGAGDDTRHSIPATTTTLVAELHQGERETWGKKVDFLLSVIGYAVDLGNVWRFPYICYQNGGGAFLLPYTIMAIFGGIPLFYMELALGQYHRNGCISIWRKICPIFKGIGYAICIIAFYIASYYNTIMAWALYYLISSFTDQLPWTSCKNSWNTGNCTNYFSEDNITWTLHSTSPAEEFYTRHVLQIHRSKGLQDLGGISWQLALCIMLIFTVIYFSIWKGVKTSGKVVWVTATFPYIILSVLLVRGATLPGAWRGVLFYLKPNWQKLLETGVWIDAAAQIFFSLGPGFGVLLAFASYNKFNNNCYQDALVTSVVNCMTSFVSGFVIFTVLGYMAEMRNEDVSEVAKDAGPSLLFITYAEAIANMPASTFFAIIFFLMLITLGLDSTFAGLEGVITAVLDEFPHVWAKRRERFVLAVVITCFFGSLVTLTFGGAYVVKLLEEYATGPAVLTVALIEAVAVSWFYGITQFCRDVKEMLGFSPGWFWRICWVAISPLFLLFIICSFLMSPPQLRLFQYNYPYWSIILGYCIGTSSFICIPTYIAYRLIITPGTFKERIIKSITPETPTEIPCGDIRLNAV
Procedure, shortened: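 CHO-K1 cells stably expressing human SERT, plated overnight, took up [3H]-5-HT (diluted to 200 nM before a 1:10 addition) for 20 min in HEPES-buffered saline with glucose and 0.5% BSA; radioactivity counted by scintillation. Compounds at 10 μM or 1 μM, activity expressed relative to 10 μM paroxetine set as 100%.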

[2] = target: T2, human dopamine transporter (Homo sapiens, UniProt Q01959); test: Inhibitory action on human dopamine transporter ([3H]-dopamine uptake in CHO cells); conditions: compound 1 μM, relative to inhibitory activity of 100 μM Nomifensine as 100%; for inhibition at 1 µM: CHO, read-out: inhibitory rate (%)
T2 construct: expressed in transfected cells
T2 sequence (Q01959 whole entry): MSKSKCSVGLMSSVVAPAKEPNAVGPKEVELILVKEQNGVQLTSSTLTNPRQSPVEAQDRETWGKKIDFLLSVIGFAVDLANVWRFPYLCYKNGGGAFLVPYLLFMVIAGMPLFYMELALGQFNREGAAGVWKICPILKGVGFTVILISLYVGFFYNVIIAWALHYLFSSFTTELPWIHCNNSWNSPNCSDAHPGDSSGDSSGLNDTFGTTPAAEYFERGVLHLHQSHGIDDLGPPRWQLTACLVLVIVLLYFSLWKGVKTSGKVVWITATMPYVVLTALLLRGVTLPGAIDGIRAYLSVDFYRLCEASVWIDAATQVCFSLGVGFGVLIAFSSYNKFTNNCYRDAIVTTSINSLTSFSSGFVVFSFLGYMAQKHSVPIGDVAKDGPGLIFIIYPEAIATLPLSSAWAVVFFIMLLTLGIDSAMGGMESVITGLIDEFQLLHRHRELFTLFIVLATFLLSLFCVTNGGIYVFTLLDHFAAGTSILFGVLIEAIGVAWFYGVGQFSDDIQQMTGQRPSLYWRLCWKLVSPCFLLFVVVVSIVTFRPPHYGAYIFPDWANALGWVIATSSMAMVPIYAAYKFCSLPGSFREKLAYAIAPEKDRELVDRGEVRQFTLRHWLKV
Procedure, shortened: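 CHO-K1 cells stably expressing human dopamine transporter, exposed to compound at 10 μM or 1 μM in HEPES-buffered saline with 0.5% BSA. [3H]-dopamine uptake measured over 60 min by scintillation counting. Activity expressed relative to 100 μM nomifensine as 100%.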

[3] = target: T3, human norepinephrine transporter (Homo sapiens, UniProt P23975); test: Inhibitory action on human norepinephrine transporter ([3H]-norepinephrine uptake in CHO cells); conditions: relative to inhibitory activity of 10 μM DMI as 100%; for inhibition at 1 µM: CHO
T3 construct: expressed in transfected cells
T3 sequence (P23975 whole entry): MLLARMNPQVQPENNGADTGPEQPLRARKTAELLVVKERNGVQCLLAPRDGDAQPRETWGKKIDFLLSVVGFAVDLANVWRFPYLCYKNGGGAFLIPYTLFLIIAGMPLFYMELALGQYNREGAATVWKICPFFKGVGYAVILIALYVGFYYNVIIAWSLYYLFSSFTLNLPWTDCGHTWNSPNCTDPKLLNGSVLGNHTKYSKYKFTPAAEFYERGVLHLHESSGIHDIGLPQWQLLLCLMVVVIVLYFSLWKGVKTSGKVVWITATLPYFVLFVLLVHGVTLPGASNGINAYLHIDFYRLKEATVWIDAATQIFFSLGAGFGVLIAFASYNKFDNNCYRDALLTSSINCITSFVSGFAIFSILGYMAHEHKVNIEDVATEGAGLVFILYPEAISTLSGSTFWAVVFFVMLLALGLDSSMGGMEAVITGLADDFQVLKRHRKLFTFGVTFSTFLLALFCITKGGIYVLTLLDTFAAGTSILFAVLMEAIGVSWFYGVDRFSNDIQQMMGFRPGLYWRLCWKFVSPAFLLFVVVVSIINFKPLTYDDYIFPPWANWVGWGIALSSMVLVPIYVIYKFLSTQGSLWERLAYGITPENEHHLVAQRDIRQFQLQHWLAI
Procedure, shortened: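 Stably transfected CHO-K1 cells plated overnight, then given test compound and [3H]-norepinephrine (20 nM final, from 200 nM) in HEPES-buffered saline with 0.5% BSA for 45 min. After PBS washes, retained radioactivity counted by scintillation. Inhibition at 10 μM or 1 μM compound expressed relative to 10 μM DMI as 100%.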

[4] = compound 1 μM, read-out: inhibitory rate (%)
[5] = read-out: inhibitory rate (%), compound 1 μM

Structure (SMILES) | inhibition at 1 µM [1] [%] | inhibition at 1 µM [2] [%] | inhibition at 1 µM [3, 4] [%] | inhibitory rate (%) [1] [%] | inhibitory rate (%) [2] [%] | inhibitory rate (%) ([3]; compound 1 μM) | inhibition at 1 µM [3, 5] [%]
O=C1CN([C@@H]2CNCCO[C@H]2c2ccc(Cl)c(Cl)c2)C(=O)N1 [Example 276, 1-[(6R,7S)-7-(3,4-dichlorophenyl)-1,4-oxazepan-6-yl]imidazolidine-2,4-dione monohydrochloride] | 87 | 94 | 103 | – | – | – | –
OC[C@@H]1CNCCO[C@H]1c1ccc(F)c(Cl)c1 [Example 284, [(6S,7R)-7-(3-chloro-4-fluorophenyl)-1,4-oxazepan-6-yl]methanol monofumarate] | 34 | 11 | – | – | – | – | 96
OC[C@H]1CNCCO[C@@H]1c1ccc(F)c(Cl)c1 [Example 285, [(6R,7S)-7-(3-chloro-4-fluorophenyl)-1,4-oxazepan-6-yl]methanol 0.5 fumarate] | 79 | 19 | 94 | – | – | – | –
OC[C@@H]1CNCCO[C@H]1c1ccc(Cl)c(F)c1 [Example 301, [(6S,7R)-7-(4-chloro-3-fluorophenyl)-1,4-oxazepan-6-yl]methanol monohydrochloride] | 52 | 10 | 100 | – | – | – | –
OC[C@H]1CNCCO[C@@H]1c1ccc(Cl)c(F)c1 [Example 302, [(6R,7S)-7-(4-chloro-3-fluorophenyl)-1,4-oxazepan-6-yl]methanol monohydrochloride] | 73 | 12 | 98 | – | – | – | –
O=C(CO)NC[C@@H]1CNCCO[C@H]1c1ccc(Cl)c(F)c1 [Example 315, N-{[(6S,7R)-7-(4-chloro-3-fluorophenyl)-1,4-oxazepan-6-yl]methyl}-2-hydroxyacetamide monohydrochloride] | 43 | 13 | 105 | – | – | – | –
O=C1NCCCN1C[C@@H]1CNCCO[C@H]1c1ccc(Cl)c(F)c1 [Example 372, 1-{[(6S,7R)-7-(4-chloro-3-fluorophenyl)-1,4-oxazepan-6-yl]methyl}tetrahydropyrimidin-2(1H)-one monohydrochloride] | 98 | 97 | – | – | – | – | 103
O=C1CCCCN1C[C@@H]1CNCCO[C@H]1c1ccc(Cl)c(F)c1 [Example 376, 1-{[(6S,7R)-7-(4-chloro-3-fluorophenyl)-1,4-oxazepan-6-yl]methyl}piperidin-2-one monohydrochloride] | 98 | 89 | 102 | – | – | – | –
O=c1[nH]nc(-c2cccn(C[C@@H]3CNCCO[C@H]3c3ccc(Cl)c(F)c3)c2=O)[nH]1 [Example 379, 1-{[(6S,7R)-7-(4-chloro-3-fluorophenyl)-1,4-oxazepan-6-yl]methyl}-3-(5-oxo-4,5-dihydro-1H-1,2,4-triazol-3-yl)pyridin-2(1H)-one monohydrochloride] | 95 | 64 | 102 | – | – | – | –
Cc1cc(C2OCCNCC2CO)ccc1Cl (stereo not drawn) [Example 402, [(6R*,7S*)-7-(4-chloro-3-methylphenyl)-1,4-oxazepan-6-yl]methanol monohydrochloride (retention time long)] | – | – | – | 91 | 19 | 98 | –
Cc1ccc(C2OCCNCC2CO)cc1Cl (stereo not drawn) [Example 405, [(6R*,7S*)-7-(3-chloro-4-methylphenyl)-1,4-oxazepan-6-yl]methanol monohydrochloride (retention time short)] | 71 | 12 | 100 | – | – | – | –
Cc1ccc(C2OCCNCC2CO)cc1Cl (stereo not drawn) [Example 406, [(6R*,7S*)-7-(3-chloro-4-methylphenyl)-1,4-oxazepan-6-yl]methanol monohydrochloride (retention time long)] | – | – | – | 82 | 22 | 98 | –
OCCOC[C@@]1(c2ccc(Cl)c(Cl)c2)CCNCCO1 [Example 416, 2-{[(7S)-7-(3,4-dichlorophenyl)-1,4-oxazepan-7-yl]methoxy}ethanol monohydrochloride] | 85 | 18 | 100 | – | – | – | –
CS(=O)(=O)NC[C@@]1(c2ccc(Cl)c(Cl)c2)CCNCCO1 [Example 432, N-{[(7S)-7-(3,4-dichlorophenyl)-1,4-oxazepan-7-yl]methyl}methanesulfonamide monohydrochloride] | 84 | 10 | 97 | – | – | – | –
O=C1CNC(=O)N1C[C@@]1(c2ccc(Cl)c(Cl)c2)CCNCCO1 [Example 439, 3-{[(7S)-7-(3,4-dichlorophenyl)-1,4-oxazepan-7-yl]methyl}imidazolidine-2,4-dione monohydrochloride] | 74 | 7 | 98 | – | – | – | –
OCC1CNCCOC1c1ccc(Cl)c(F)c1 (stereo not drawn) [Example 440, [(6R*,7R*)-7-(4-chloro-3-fluorophenyl)-1,4-oxazepan-6-yl]methanol monohydrochloride (retention time short)] | – | 10 | 105 | 93 | – | – | –
OC[C@@H]1OCCNC[C@@H]1c1ccc(Cl)c(Cl)c1 [Example 448, [(6S,7R)-6-(3,4-dichlorophenyl)-1,4-oxazepan-7-yl]methanol monohydrochloride] | 28 | 7 | 88 | – | – | – | –

Further lines, with some results ahead:

inhibition at 1 µM [1] [%] | inhibition at 1 µM [2] [%] | inhibition at 1 µM [3, 4] [%] | inhibitory rate (%) [1] [%] | inhibitory rate (%) [2] [%] | inhibitory rate (%) ([3]; compound 1 μM) | Structure (SMILES) | inhibition at 1 µM [3, 5] [%]
82 | 76 | 103 | – | – | – | CS(=O)(=O)N[C@H]1CNCCO[C@@H]1c1ccc(Cl)c(Cl)c1 [Example 266, N-[(6S,7R)-7-(3,4-dichlorophenyl)-1,4-oxazepan-yl]methanesulfonamide monohydrochloride] | –
49 | 11 | 104 | – | – | – | O=C(CC(F)(F)F)NC[C@@H]1CNCCO[C@H]1c1ccc(Cl)c(F)c1 [Example 314, N-{[(6S,7R)-7-(4-chloro-3-fluorophenyl)-1,4-oxazepan-6-yl]methyl}-3,3,3-trifluoropropanamide monohydrochloride] | –
102 | 19 | 103 | – | – | – | O=C(NC[C@@H]1CNCCO[C@H]1c1ccc(Cl)c(F)c1)c1cc(-c2noc(=O)[nH]2)ccc1F [Example 357, N-{[(6S,7R)-7-(4-chloro-3-fluorophenyl)-1,4-oxazepan-6-yl]methyl}-2-fluoro-5-(5-oxo-4,5-dihydro-1,2,4-oxadiazol-3-yl)benzamide monohydrochloride] | –
99 | 57 | 103 | – | – | – | O=C(NC[C@@H]1CNCCO[C@H]1c1ccc(Cl)c(F)c1)c1ccc[nH]c1=O [Example 367, N-{[(6S,7R)-7-(4-chloro-3-fluorophenyl)-1,4-oxazepan-6-yl]methyl}-2-oxo-1,2-dihydropyridine-3-carboxamide monohydrochloride] | –
75 | 17 | 100 | – | – | – | Cc1cc(C2OCCNCC2CO)ccc1Cl (stereo not drawn) [Example 401, [(6R*,7S*)-7-(4-chloro-3-methylphenyl)-1,4-oxazepan-6-yl]methanol monohydrochloride (retention time short)] | –
92 | 17 | 102 | – | – | – | OCC(O)COC[C@@]1(c2ccc(Cl)c(Cl)c2)CCNCCO1 (stereo partly drawn) [Example 417, 3-{[(7S)-7-(3,4-dichlorophenyl)-1,4-oxazepan-7-yl]methoxy}propane-1,2-diol monohydrochloride] | –
81 | 6 | 97 | – | – | – | O=C1CNC(=O)N1C[C@]1(c2ccc(Cl)c(Cl)c2)CCNCCO1 [Example 438, 3-{[(7R)-7-(3,4-dichlorophenyl)-1,4-oxazepan-7-yl]methyl}imidazolidine-2,4-dione monohydrochloride] | –
– | – | – | 51 | 6 | 103 | OCC1CNCCOC1c1ccc(Cl)c(F)c1 (stereo not drawn) [Example 441, [(6R*,7R*)-7-(4-chloro-3-fluorophenyl)-1,4-oxazepan-6-yl]methanol monohydrochloride (retention time long)] | –
42 | 51 | 99 | – | – | – | OC[C@H]1OCCNC[C@H]1c1ccc(Cl)c(Cl)c1 [Example 447, [(6R,7S)-6-(3,4-dichlorophenyl)-1,4-oxazepan-7-yl]methanol monohydrochloride] | –
41 | 99 | 104 | – | – | – | CC(=O)NC[C@H]1OCCNC[C@H]1c1ccc(Cl)c(Cl)c1 [Example 453, N-{[(6R,7S)-6-(3,4-dichlorophenyl)-1,4-oxazepan-7-yl]methyl}acetamide monohydrochloride] | –
